Experiment: Stability of vitamin B12 during sterilization at different C0
Assay type: physicochemical
Conditions: Batch 3 (5% lipid emulsion); C0=120 min
Procedure: Therefore, in a first step, exemplary glucose solutions and lipid emulsions each containing vitamin B12 were submitted to different amounts of C0 during the sterilization step to analyze the impact of C0 on the stability of vitamin B12. Several C0 values were targeted and a wide range, from 20 min to 120 min, was screened to understand the correlation between C0 and the degradation of vitamin B12 in different media. Bags of lipid emulsion were produced, wherein the 5% olive-based emulsion contained vitamin B12 (cyanocobalamin form) at a concentration of 1 dd in 25 mL and, in one case, EDTA in a concentration of 0.1% w/v of the final emulsion (see Table 6). […] The heat sensitivity of the vitamin was assessed through the analysis of the respective degradation profile. […]
The solutions were analyzed unsterilized and sterilized for each cycle. […]
Bags were then analyzed at the respective points in time to evaluate the impact on the degradation of vitamin B12. The quantitative determination of vitamin B12 in the form of cyano- and hydroxocobalamins was done by Ultra Performance Liquid Chromatography (UPLC), which separates components of a solution by partitioning of the analytes between a mobile liquid phase and a […] (reversed phase mode). […]

Substance: cobalamin [Batch B12]
- degradation of the total sum of vitamin B12: about 35%

— patent US12507721B2, “Ready-to-use parenteral nutrition formulation” (BAXTER INTERNATIONAL INC., priority 2021, dated 2025)
